# Laboratory results published in US20130263297A1, “METHODS OF TREATING CANCER” (Cedars-Sinai Medical Center, priority 2010, published 2013).
# Entries after “also recorded” stand apart in the source; their conditions may differ.
# B1: RANKL: trimerized recombinant RANKL protein (rRANKL), receptor activator of NF-KB ligand (protein, UniProt O14788 69-317, looked up)
# extracellular domain: YFRAQMDPNRISEDGTHCIYRILRLHENADFQDTTLESQDTKLIPDSCRRIKQAFQGAVQKELQHIVGSQHIRAEKAMVDGSWLDLAKRSKLEAQPFAHLTINATDIPSGSHKVSLSSWYHDRGWAKISNMTFSNGKLIVNQDGFYYLYANICFRHHETSGDLATEYLQLMVYVTKTSIKIPSSHTLMKGGSTKYWSGNSEFHFYSINVGGFFKLRSGEEISIEVSNPSLLDPDQDATYFGAFKVRDID
# modifications: extracellular domain trimerized
# Assays:
# cMet in ARCaPE cells = experiment: cMet expression and phosphorylation (Western blot), ARCaPE; format: cell-based, human
# [1] = system: RANKL promoter in ARCaPE, ARCaPM and ARCaPE-RANKL cells; experiment: RANKL promoter reporter assay, ARCaP model; format: cell-based, human
# From the text: Because the inventors are interested in how RANKL is transcriptionally regulated, the inventors have constructed a 2.5 kb 5′ upstream region of RANKL promoter. The inventors used BAC clones (RP11-86N24) to amplify the promoter region of RANKL from human chromosome 13 contig. The whole promoter region (2.5 kb) was then cloned into pGL3 basic luciferase reporter vector. The inventors placed RANKL promoter reporter into ARCaPE,M, C4-2, and a positive cell line, SaOS-2 to examine the basic promoter activity. Then, the inventors stimulated the RANKL promoter by various growth factors, such as vitamin D3, PTH, and TGFβ.
# [2] = system: LNCaP and LNCaP-RANKL cells; experiment: In vitro migration and invasion assays (transwell), LNCaP model; format: cell-based, human
# Experimental: Migration and invasion of cancer cells were examined in 24-well plates using either uncoated or collagen I- and growth factor reduced Matrigel (BD Biosciences, Bedford, Mass.)-coated transwells (8 μm pore size), respectively, as previously described. Cells were serum-starved in RPMI 1640 or T-medium (Invitrogen, Carlsbad, Calif.) overnight and dissociated in 10 mM EDTA/HEPES. The lifted cells were washed and counted, and 5×10^4 cells were seeded in 100 μl of serum-free RPMI 1640 or T-medium in the upper chamber of the transwells in the presence or absence of 1 μg/ml OPG and 400 μl of RPMI 1640 or T-medium supplemented with 5% FBS was placed in the lower chamber of the transwells. After 24 h (migration) and 48 h (invasion) of culturing at 37° C., the migrated and invaded cells were fixed with 10% formaldehyde, stained with 0.5% crystal violet, and the cells at the upper side of the membrane of the chamber were removed and quantified.
# ARCaPE and ARCaPM cells = experiment: EMT marker / RANKL expression by RT-PCR and Western blot and morphology, ARCaP model; format: cell-based, human; set-up: N-cadherin expression in ARCaPE cells (Example 9) / E-cadherin expression in ARCaPE cells (Example 9) / Snail expression in ARCaPE cells (Example 9) / vimentin expression in ARCaPE cells (Example 9): dose or concentration left out as unconfirmed
# Experimental: 4×10^5 ARCaP and PC3 cells were seeded into a 6-well plate and cultured for 48 hrs until they grow to 90% confluence. The RANKL siRNA (50 pmole) and siRNA control (50 pmole) and lipofetamine (2.5 ul) were mixed with 250 ul of OPTI-medium without any FBS, respectively and incubated at RT for 5 minutes. The DNA and lipofetamine were then mixed together and incubated for 20 minutes before adding to the cells in each well. The medium was changed to normal 5% T-medium after 6 h incubation. The cells were incubated at 37° C. for two days before harvesting.
# Total of 30 ug of proteins per well from both ARCaPE and ARCaPM cells were run on a Tris-Bis 4-12% gradient polyacrylamide gel (Invitrogen) one and half hours at 150 Volts. The proteins on the gel were then transferred to PVDF membranes using Hoefer semi-dry system. The membranes were incubated with 5% skim milk in PBST (Blocking solution) for 20 min to block non-specific antibody labeling. The RANKL primary antibody was diluted with blocking solution (1:200 and 1:500) and incubated with the membrane for one hour at RT on a rocker or overnight at 4° C. The membrane was washed with PBST (PBS+0.01% TWEEN) three times for a minimum of 5 min each. Secondary rabbit anti-goat antibodies were incubated with the membrane for one hour at RT on a rocker. The membrane was again washed with PBST three times for 5 min each. Chemiluminescent substrate (Western Lightning) was evenly added across the top surface of the membrane, and the membrane was exposed to X-ray films for 30 seconds to 2 minutes depending on the strength of the signals and then developed according to the manufacturer's instructions.
# For each reaction, a 50 μl PCR reaction mix containing 5 μl of 10×PCR buffer, 1.5 ul of 50 mM MgCl2, 1 ul of 10 mM dNTP, 1 ul of each forward and reverse primers (RANKL F: […] (SEQ ID NO:1) and RANKL R: […] (SEQ ID NO:2); GAPDH as the positive control), 3 ul cDNA, 37 ul double distilled water, and 0.5 μl of Taq polymerase (Invitrogen) was made. The reaction was first activated at 94° C. for 2 min and run for 36 cycles of 94° C. (30 sec-melting), 60° C. (30 sec-annealing), and 72° C. (60 sec-extension), and lastly incubated at 72° C. for 5 min to amplify the cDNA. A 1% gel electrophoresis was run with 5 μl of 100 by DNA ladder and 10 μl of amplified cDNA of each sample to check the size of the cDNA and also whether it was successfully synthesized under UV light. […]
# ARCaPE or ARCaPM cells were seeded into 6-well plate and transiently transfected with flag-tagged RANKL or neo plasmid DNA under the regulation by CMV-promoter, or RANKL siRNA (Santa Cruz Biotechnology, Inc., Santa Cruz, Calif.) with an universal scramble siRNA which serves as the control (Invitrogen, Carlsbad, Calif.). After 48 h of transfection, cells were harvested for western blotting and RT-PCR analyses. For stable transfection, LNCaP cells were first transfected with either flag-tagged RANKL- or neo-control-plasmid cDNA (Sigma-Aldrich, St. Louis, Mo.) in a 6-well plate for 48 h, and the cells were trypsinized and seeded into a 15 cm dish. The cells contain the transfected vector were selected in 400 μg/ml of G418 until individual colonies that contain transfected construct were formed. LNCaP cell colonies expressing flag-tagged RANKL or neo plasmid were picked and the cells were amplified from a 48-well plate to a 10 cm dish in the presence of G418. Stable clones were maintained in 200 μg/ml of G418 and routinely checked for flag-RANKL expression by western blot analysis.
# Total RNA from cells was isolated using RNeasy Mini Kit (Qiagen, Valencia, Calif.) according to manufacturer's instructions. […]
# LNCaP-RANKL cells = experiment: Soft agar (anchorage-independent) colony formation, LNCaP-RANKL; format: cell-based, human; details: addition of OPG
# [3] = system: RANKL-expressing prostate cancer cells; experiment: Stem cell and neuroendocrine marker expression; format: cell-based
# ARCaPE-RANKL cells = experiment: Soft agar (anchorage-independent) colony formation, ARCaPE-RANKL; format: cell-based, human; details: addition of OPG
# human cancer cells = experiment: Bone colonization by human cancer cells (FIG. 34); format: in vivo; details: recombinant sRANKL
# [4] = recombinant RANKL 200 and 400, four days
molecule,measurement,setting,value
osteoprotegerin [OPG],RANKL- or HGF-induced cMet expression and phosphorylation in ARCaPE cells,cMet in ARCaPE cells; OPG (vs RANKL) or anti-HGF antibody (vs HGF) treatment,abrogated
same,RANKL promoter activity in ARCaPM cells,[1]; OPG treatment,dampen
same,increased RANKL promoter activity in ARCaPE-RANKL cells,[1]; OPG treatment,attenuated
same,increased migration and invasion of LNCaP-RANKL cells,[2]; OPG treatment,antagonized; also recorded: suppressed
same,RANKL-induced increase of migration and invasion of LNCaP cells,[2]; presence of OPG,abrogated
same,RANKL expression in ARCaPM cells,ARCaPE and ARCaPM cells; 1 ug/ml of OPG,down-regulated
same,Vimentin in ARCaPE cells (WB),ARCaPE and ARCaPM cells; RANKL plus OPG,significantly reduced
same,N-cad and Vimentin expression in ARCaPE cells (RT-PCR),ARCaPE and ARCaPM cells; RANKL plus OPG compared to 300 ng/ml RANKL,slightly decreased
same,"E-cad expression in ARCaPE cells (RT-PCR, WB)",ARCaPE and ARCaPM cells; RANKL plus OPG compared to RANKL,restore
same,RANKL-induced EMT and cadherin switch in ARCaPE cells,ARCaPE and ARCaPM cells; addition of OPG,blocked; also recorded: abolished
same,RANKL-induced RANKL expression in ARCaPE cells,ARCaPE and ARCaPM cells; addition of OPG,attenuated
same,"EMT phenotype of ARCaPM cells (morphology, mesenchymal genes, cadherin switch)",ARCaPE and ARCaPM cells; exposure to OPG (1 μg/ml),reversed
same,soft agar colony formation (tumorigenicity) of LNCaP-RANKL cells,LNCaP-RANKL cells,attenuated
same,expression of neuroendocrine markers,[3],blocked
same,expression of stem cell markers,[3],antagonized
same,soft agar colony formation (tumorigenicity) of ARCaPE-RANKL cells,ARCaPE-RANKL cells,attenuated
B1,cMet expression and phosphorylated level of cMet in ARCaPE cells,cMet in ARCaPE cells; exogeneous RANKL or HGF treatment,significantly increased
same,RANKL promoter activity in ARCaPE and ARCaPM cells,[1]; RANKL treatments,induced
same,migration and invasion of LNCaP cells,[2]; recombinant RANKL treatment,increased
same,E-cadherin expression in ARCaPE cells,ARCaPE and ARCaPM cells; 200 ng/ml recombinant RANKL,down-regulated
same,N-cadherin expression in ARCaPE cells,ARCaPE and ARCaPM cells; 200 ng/ml recombinant RANKL,up-regulated
same,"Snail, vimentin, and RANKL expression in ARCaPE cells",ARCaPE and ARCaPM cells; 200 ng/ml recombinant RANKL,up-regulation
same,cell morphology of ARCaPE cells,"ARCaPE and ARCaPM cells; 200 ng/ml recombinant RANKL protein, 8-day period",gradually changed their morphology from cobble-stoned clusters to more dispersed and fibroblastic-like appearance
same,Vimentin in ARCaPE cells (WB),ARCaPE and ARCaPM cells; RANKL alone,only slightly increased
same,RANKL expression at mRNA and protein levels in ARCaPE cells,ARCaPE and ARCaPM cells; RANKL treatment,up-regulated
same,N-cadherin expression in ARCaPE cells (Example 9),ARCaPE and ARCaPM cells; [4],slightly increased
same,Snail expression in ARCaPE cells (Example 9),ARCaPE and ARCaPM cells; [4],no effect
same,vimentin expression in ARCaPE cells (Example 9),ARCaPE and ARCaPM cells; [4],increases
same,E-cadherin expression in ARCaPE cells (Example 9),"ARCaPE and ARCaPM cells; recombinant RANKL 200 and 400, four days, RNA and protein level",decrease
same,bone colonization by human cancer cells,human cancer cells,promotes bone colonization
